Measurements reported in US8343934B2, “Diverse lead compound autotaxin inhibitors” (University of Memphis, priority 2009, dated 2013).
Values belong to the molecule of their own block, whether it stands above or below them. Where a SMILES comes first, the peptide text is derived from it. [ ]: non-standard residue; d: D form. Phe(4-Cl) = N[CH](Cc1ccc(Cl)cc1)C(=O)O; 3Pal = N[CH](Cc1cccnc1)C(=O)O

Target: T1, ATX (Homo sapiens, UniProt Q13822)
T1 construct: conditioned serum-free medium (CCM) from MDA-MB-435 cells as the source of ATX; endogenous in cells; host or cells: MDA-MB-435 cells (about 10x concentrated conditioned serum-free medium)
Test: ATX inhibition assay (FS-3 substrate)
Type: biochemical
Conditions: for % Response: preliminary screen, FS-3 hydrolysis at one hour, normalized to vehicle control, mean±S.D., same values given at 10 μM in Table 5; for IC50: Calculated IC50 data for the 30 active compounds, FS-3 substrate
Procedure: ATX inhibition was assayed using the substrate FS-3 (Echelon Biosciences, Inc., Salt Lake City, Utah, USA). The FS-3 assay used ˜10 times concentrated conditioned serum-free medium (CCM) from MDA-MB-435 cells as the source of ATX, while CCM comprised one-third of the total volume. The final volume for FS-3 was comprised of the substrate at varying concentrations and 30 μM charcoal-stripped fatty acid free BSA (Sigma Aldrich) in assay buffer (1 mM each CaCl2 and MgCl2, 5 mM KCl, 140 mM NaCl, 50 mM Tris pH 8.0).
All assays were performed in 96-well plates with data read at 1 minute intervals by a Synergy2 system (BioTek, Winooski, Vt.). The fluorescence produced upon the hydrolysis of FS-3 was monitored using an excitation wavelength of 485 nm and an emission wavelength of 528 nm at 37° C. (Ferguson et al., 2006). […] All readings were normalized to vehicle control after subtraction of fluorescence in the absence of CCM. Data are shown as the mean±S.D. of at least three wells.

SMILES: Cc1cc(N)ccc1N=Nc1ccc(Sc2ccc(N=Nc3c(S(=O)(=O)O)cc4cc(S(=O)(=O)O)c(N=Nc5ccc([N+](=O)[O-])cc5)c(N)c4c3O)cc2)cc1.[Na+] [compound 65571]
% Response: 74 ± 5.5%

SMILES: O=C(Nc1ccc2c(O)c(N=Nc3ccccc3)c(S(=O)(=O)O)cc2c1)Nc1ccc2c(O)c(N=Nc3ccc4cc(S(=O)(=O)O)ccc4c3)c(S(=O)(=O)O)cc2c1.[H-].[Na+] [compound 65573]
IC50: 19.1 µM | % Response: 39 ± 3.8%

SMILES: Cc1cccc(N=Nc2c(S(=O)(=O)O)cc3cc(NC(=O)Nc4ccc5c(O)c(N=Nc6ccc7cc(S(=O)(=O)O)ccc7c6)c(S(=O)(=O)O)cc5c4)ccc3c2O)c1.[Na+] [compound 65574]
IC50: 12 µM | % Response: 20 ± 3.7%

SMILES: Cc1ccc(N=Nc2c(S(=O)(=O)[O-])cc3cc(NC(=O)Nc4ccc5c(O)c(N=Nc6ccc7cc(S(=O)(=O)[O-])ccc7c6)c(S(=O)(=O)[O-])cc5c4)ccc3c2O)c(C)c1.[Na+].[Na+].[Na+] [compound 65575]
IC50: 18.6 µM | % Response: 33 ± 3.7%

SMILES: COc1ccccc1N=Nc1c(S(=O)(=O)O)cc2cc(S(=O)(=O)O)c(N=Nc3ccc([N+](=O)[O-])cc3)c(N)c2c1O.[Na+] [compound 65829]
% Response: 71 ± 4.0%

SMILES: Cc1ccccc1N=Nc1ccc(N=Nc2c(S(=O)(=O)O)cc3cc(S(=O)(=O)O)c(N=Nc4ccc([N+](=O)[O-])cc4)c(N)c3c2O)c(C)c1.[Na+] [compound 65836]
% Response: 71 ± 4.6%

SMILES: Nc1ccc(N=Nc2ccc(-c3ccc(N=Nc4c(S(=O)(=O)O)cc5cc(S(=O)(=O)O)c(N=Nc6ccc([N+](=O)[O-])cc6)c(N)c5c4O)cc3)cc2)c(N)c1.[Na+] [compound 65848]
IC50: 15.2 µM | % Response: 48 ± 4.8%

SMILES: Nc1ccc2cc(S(=O)(=O)O)cc(O)c2c1N=Nc1ccc(-c2ccc(N=Nc3c(S(=O)(=O)O)cc4cc(S(=O)(=O)O)c(N=Nc5ccc([N+](=O)[O-])cc5)c(N)c4c3O)cc2)cc1 [compound 65855]
IC50: 17.4 µM | % Response: 43 ± 3.8%

SMILES: O=C(Nc1ccc(Sc2ccc(N=Nc3c(O)c(S(=O)(=O)O)cc4cc(S(=O)(=O)O)ccc34)cc2)cc1)c1ccc(N=Nc2c(O)c(S(=O)(=O)O)cc3cc(S(=O)(=O)O)ccc23)cc1 [compound 65860]
% Response: 66 ± 4.4%

SMILES: Nc1c(N=Nc2ccc([N+](=O)[O-])cc2)c(S(=O)(=O)O)cc2cc(S(=O)(=O)O)c(N=Nc3ccc(-c4ccc(N=Nc5c(S(=O)(=O)O)cc6cc(S(=O)(=O)O)c(N=Nc7ccc([N+](=O)[O-])cc7)c(N)c6c5O)cc4)cc3)c(O)c12.[Na+] [compound 65869]
IC50: 22.7 µM | % Response: 46 ± 6.7%

SMILES: Nc1ccc(C(=O)Nc2ccc(NC(=O)Nc3ccc(NC(=O)c4ccc(N)cc4)c(S(=O)(=O)O)c3)cc2S(=O)(=O)O)cc1.[Na+] [compound 71960]
% Response: 88 ± 5.3%

SMILES: Nc1ccc2cc(S(=O)(=O)[O-])c(N=Nc3ccc(-c4ccc(N=Nc5c(S(=O)(=O)[O-])cc6cc(S(=O)(=O)[O-])cc(N)c6c5O)cc4)cc3)c(O)c2c1.[Na+].[Na+].[Na+] [compound 75779]
IC50: 1.26 µM | % Response: 20 ± 5.7%

SMILES: Cc1[nH]n(-c2cc(S(=O)(=O)O)ccc2Cl)c(=O)c1N=Nc1c(NC(=O)c2ccc(N)cc2)ccc2cc(S(=O)(=O)O)ccc12.[Na+] [compound 75963]
% Response: 51 ± 4.4%

SMILES: Nc1ccc(N=Nc2ccc(-c3ccc(N=Nc4c(S(=O)(=O)O)cc5cc(S(=O)(=O)O)c(N=Nc6ccc([N+](=O)[O-])cc6)c(N)c5c4O)cc3)cc2)c2cc(S(=O)(=O)O)ccc12.Nc1ccc(N=Nc2ccc(-c3ccc(N=Nc4c(S(=O)(=O)O)cc5cc(S(=O)(=O)O)c(N=Nc6ccc([N+](=O)[O-])cc6)c(N)c5c4O)cc3)cc2)c2ccc(S(=O)(=O)O)cc12 [compound 77520]
IC50: 4.07 µM | % Response: 32 ± 2.7%

SMILES: Nc1ccc(N=Nc2ccc(-c3ccc(N=Nc4c(S(=O)(=O)[O-])cc5cc(S(=O)(=O)[O-])c(N=Nc6ccc([N+](=O)[O-])cc6)c(N)c5c4O)cc3)cc2)c2cc(S(=O)(=O)[O-])ccc12.[Na+].[Na+].[Na+] [compound 79743]
IC50: 8.33 µM | % Response: 39 ± 2.7%

SMILES: Nc1ccc2cc(S(=O)(=O)[O-])c(N=Nc3ccc(-c4ccc(N=Nc5c(S(=O)(=O)[O-])cc6cc(S(=O)(=O)[O-])c(N=Nc7cccc([N+](=O)[O-])c7)c(N)c6c5O)cc4)cc3)c(O)c2c1.[Na+].[Na+].[Na+] [compound 79744]
IC50: 11.5 µM | % Response: 35 ± 2.9%

SMILES: Cc1c(N)cc(S(=O)(=O)O)c(N=Nc2ccc(-c3ccc(N=Nc4c(S(=O)(=O)O)cc5cc(S(=O)(=O)O)c(N=Nc6cccc([N+](=O)[O-])c6)c(N)c5c4O)cc3)cc2)c1N.[Na+] [compound 80903]
IC50: 5.88 µM | % Response: 32 ± 2.6%

SMILES: O=C(/C=C\c1ccc(NCc2ccc(C(=O)O)cc2)cc1)CCl [compound 106024]
% Response: 62 ± 2.5%

SMILES: O=C(COc1ccc(Cl)cc1C(=O)O)NCc1cccc(NC(=O)Nc2ccc(S(=O)(=O)F)cc2)c1 [compound 212086]
% Response: 95 ± 4.3%

SMILES: CCCCCCCCCCCCCCCCOc1ccc(S(=O)(=O)N/N=c2/sc3ccc(S(=O)(=O)O)cc3n2C)cc1C(=O)O [compound 270069]
% Response: 97 ± 2.4%

SMILES: O=C(/C=C/c1ccc(O)c(O)c1)NCC(=O)NC(Cc1ccccc1)C(=O)O (centres unmarked) [compound 332542]
% Response: 96 ± 3.7%

SMILES: CC(=O)NC(Cc1ccc(Cl)cc1)C(=O)NC(Cc1ccc(Cl)cc1)C(=O)NC(Cc1cccnc1)C(=O)NC(CO)C(=O)NC(Cc1ccc(O)cc1)C(=O)NC(CCCN=C(N)N)C(=O)NC(CC(C)C)C(=O)NC(CCCN=C(N)N)C(=O)N1CCCC1C(=O)NC(C)C(=O)O (centres unmarked) [compound 373963] (Ac-[Phe(4-Cl)][Phe(4-Cl)][3Pal]SYRLRPA-OH; configuration not given here)
% Response: 96 ± 2.5%

The remaining lines, values ahead:

% Response: 56 ± 4.9%
SMILES: Nc1c(N=Nc2ccc([N+](=O)[O-])cc2)c(S(=O)(=O)O)cc2cc(S(=O)(=O)O)c(N=Nc3ccc(-c4ccc(O)cc4)cc3)c(O)c12.[Na+] [compound 65560]

IC50: 15.5 µM | % Response: 35 ± 5.8%
SMILES: Cc1ccc(C)c(N=Nc2c(S(=O)(=O)O)cc3cc(NC(=O)Nc4ccc5c(O)c(N=Nc6ccc7cc(S(=O)(=O)O)ccc7c6)c(S(=O)(=O)O)cc5c4)ccc3c2O)c1.[Na+] [compound 65576]

IC50: 9.5 µM | % Response: 42 ± 3.5%
SMILES: Cc1cc(N)ccc1N=Nc1ccc(-c2ccc(N=Nc3c(S(=O)(=O)O)cc4cc(S(=O)(=O)O)c(N=Nc5ccc([N+](=O)[O-])cc5)c(N)c4c3O)cc2)cc1.[Na+] [compound 65851]

IC50: 6.36 µM | % Response: 37 ± 2.6%
SMILES: Nc1ccc(N=Nc2ccc(-c3ccc(N=Nc4c(S(=O)(=O)O)cc5cc(S(=O)(=O)O)c(N=Nc6cccc([N+](=O)[O-])c6)c(N)c5c4O)cc3)cc2)c(N)c1.[Na+] [compound 79593]

% Response: 83 ± 3.2%
SMILES: Nc1c(N=Nc2ccc([N+](=O)[O-])cc2)c(S(=O)(=O)O)cc2cc(S(=O)(=O)O)c(N=Nc3ccc(Sc4ccc(N=Nc5ccc(O)cc5)cc4)cc3)c(O)c12.[Na+] [compound 79723]

% Response: 62 ± 2.8%
SMILES: COc1cc(-c2ccc(N=Nc3c(S(=O)(=O)O)cc4cc(S(=O)(=O)O)c(N=Nc5ccc([N+](=O)[O-])cc5)c(N)c4c3O)c(OC)c2)ccc1N=Nc1ccc(N)cc1C.[Na+] [compound 79737]

IC50: 7.04 µM | % Response: 36 ± 2.5%
SMILES: Nc1ccc(N=Nc2ccc(-c3ccc(N=Nc4c(S(=O)(=O)[O-])cc5cc(S(=O)(=O)[O-])c(N=Nc6cccc([N+](=O)[O-])c6)c(N)c5c4O)cc3)cc2)c2cc(S(=O)(=O)[O-])ccc12.[Na+].[Na+].[Na+] [compound 79742]

% Response: 73 ± 4.5%
SMILES: Cc1ccccc1N=C(N)Nc1ccccc1C.Nc1c(N=Nc2ccc([N+](=O)[O-])cc2)c(S(=O)(=O)O)cc2cc(S(=O)(=O)O)c(N=Nc3ccc(Sc4ccc(N=Nc5ccc(O)cc5)cc4)cc3)c(O)c12 [compound 80902]

% Response: 94 ± 3.6%
SMILES: COc1nc(Nc2ccc(/C=C/c3ccc(Nc4nc(OC)nc(N(CCO)CCO)n4)cc3S(=O)(=O)[O-])c(S(=O)(=O)[O-])c2)nc(N(CCO)CCO)n1.[Na+].[Na+] [compound 306423]

IC50: 7.96 µM | % Response: 24 ± 2.9%
SMILES: O=C(O)c1ccc(C(=O)NCCCN(CCCCN(CCCNC(=O)c2ccc(C(=O)O)c(O)c2O)C(=O)c2ccc(C(=O)O)c(O)c2O)C(=O)c2ccc(C(=O)O)c(O)c2O)c(O)c1O.[Na+] [compound 338310]

IC50: 2.5 µM | % Response: 43 ± 2.8%
SMILES: CC(C)(C)OC(=O)NC(CC(Cc1ccccc1)C(=O)O)C(=O)NC(CC(Cc1ccccc1)C(=O)O)C(=O)NC(CC(Cc1ccccc1)C(=O)O)C(=O)NCC(=O)Oc1ccc([N+](=O)[O-])cc1 (centres unmarked) [compound 341348]
